Measured values taken from patent US20240058464A1 (Fortis Therapeutics, Inc., priority 2021, published 2024).

How the values were obtained:
[1] = tested on: CD46 expression; experiment: CD46 expression by RNA-sequencing in paired tumor biopsies before and after therapy; details: paired biopsies; for CD46 expression, Post-Treatment Biopsy / CD46 expression, Pre-Treatment Biopsy: RNA-seq log2-transformed counts;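 as to all read-outs here: FFPE human tumor biopsies, exome-capture RNA-seq, reads aligned to GRCh37, counts normalized for GC content, length and depth, summed per gene, log2-transformed, samples paired before versus after therapy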
[2] = tested on: CD46 expression; experiment: CD46 expression by RNA-sequencing in unpaired pre-treatment and post-treatment tumor biopsies; format: in vivo, human; details: for CD46 expression Post: post-treatment biopsies
[3] = Breast Cancer, Post minus Pre, unpaired biopsies, log2-transformed counts
[4] = Breast Cancer, post- vs pre-treatment unpaired biopsies
[5] = Breast Cancer, unpaired, RNA-seq log2-transformed normalized counts
[6] = Endometrial Cancer, Post minus Pre, unpaired biopsies, log2-transformed counts
[7] = Endometrial Cancer, post- vs pre-treatment unpaired biopsies
[8] = Endometrial Cancer, unpaired, RNA-seq log2-transformed normalized counts
[9] = Esophageal Cancer, Post minus Pre, unpaired biopsies, log2-transformed counts
[10] = Esophageal Cancer, post- vs pre-treatment unpaired biopsies
[11] = Esophageal Cancer, unpaired, RNA-seq log2-transformed normalized counts
[12] = Head and Neck Squamous Cell Carcinoma, Post minus Pre, unpaired biopsies, log2-transformed counts
[13] = Head and Neck Squamous Cell Carcinoma, post- vs pre-treatment unpaired biopsies
[14] = Head and Neck Squamous Cell Carcinoma, unpaired, RNA-seq log2-transformed normalized counts
[15] = Non-Small Cell Lung Cancer, Post minus Pre, unpaired biopsies, log2-transformed counts
[16] = Non-Small Cell Lung Cancer, post- vs pre-treatment unpaired biopsies
[17] = Non-Small Cell Lung Cancer, unpaired, RNA-seq log2-transformed normalized counts
[18] = Ovarian Cancer, Post minus Pre, unpaired biopsies, log2-transformed counts
[19] = Ovarian Cancer, post- vs pre-treatment unpaired biopsies
[20] = Ovarian Cancer, unpaired, RNA-seq log2-transformed normalized counts
[21] = Sarcoma, Post minus Pre, unpaired biopsies, log2-transformed counts
[22] = Sarcoma, post- vs pre-treatment unpaired biopsies
[23] = Sarcoma, unpaired, RNA-seq log2-transformed normalized counts

Compound: N.N.O=C([O-])C1(C(=O)[O-])CCC1.[Pt+2] [carboplatin]
- CD46 expression diff (post minus pre) ([1]; Breast Cancer): −0.08
- Percent Change in CD46 expression ([1]; Breast Cancer): −1.2%
- CD46 expression, Post-Treatment Biopsy ([1]; Breast Cancer): 6.06
- CD46 expression, Pre-Treatment Biopsy ([1]; Breast Cancer): 6.14
- CD46 expression diff (post minus pre) ([1]; Endometrial Cancer): 0.30
- Percent Change in CD46 expression ([1]; Endometrial Cancer): 5.1%
- CD46 expression, Pre-Treatment Biopsy ([1]; Endometrial Cancer): 5.95
- CD46 expression diff (post minus pre) ([1]; Non-Small Cell Lung Cancer): −0.06
- Percent Change in CD46 expression ([1]; Non-Small Cell Lung Cancer): −1.0%
- CD46 expression, Post-Treatment Biopsy ([1]; Non-Small Cell Lung Cancer): 6.07
- CD46 expression diff (post minus pre) ([1]; Ovarian Cancer): 0.01
- Percent Change in CD46 expression ([1]; Ovarian Cancer): 0.2%
- CD46 expression, Post-Treatment Biopsy ([1]; Ovarian Cancer): 5.67
- CD46 expression, Pre-Treatment Biopsy ([1]; Ovarian Cancer): 5.66
- CD46 expression diff ([2]; Bladder Cancer, Post minus Pre, unpaired biopsies, log2-transformed counts): 0.14
- CD46 expression Percentage change ([2]; Bladder Cancer, post- vs pre-treatment unpaired biopsies): 2.3%
- CD46 expression Post ([2]; Bladder Cancer, unpaired, RNA-seq log2-transformed normalized counts): 6.12
- CD46 expression diff [2, 3]: −0.07
- CD46 expression Percentage change [2, 4]: −1.1%
- CD46 expression Post [2, 5]: 6.00
- CD46 expression diff ([2]; Colorectal Cancer, Post minus Pre, unpaired biopsies, log2-transformed counts): 0.59
- CD46 expression Percentage change ([2]; Colorectal Cancer, post- vs pre-treatment unpaired biopsies): 10.3%
- CD46 expression Post ([2]; Colorectal Cancer, unpaired, RNA-seq log2-transformed normalized counts): 6.35
- CD46 expression diff ([2]; Endocrine Tumor, Post minus Pre, unpaired biopsies, log2-transformed counts): 0.22
- CD46 expression Percentage change ([2]; Endocrine Tumor, post- vs pre-treatment unpaired biopsies): 3.9%
- CD46 expression Post ([2]; Endocrine Tumor, unpaired, RNA-seq log2-transformed normalized counts): 5.90
- CD46 expression diff [2, 6]: 0.01
- CD46 expression Percentage change [2, 7]: 0.2%
- CD46 expression Post [2, 8]: 5.83
- CD46 expression diff [2, 9]: −0.11
- CD46 expression Percentage change [2, 10]: −1.8%
- CD46 expression Post [2, 11]: 5.79
- CD46 expression diff [2, 12]: 0.11
- CD46 expression Percentage change [2, 13]: 2.0%
- CD46 expression Post [2, 14]: 5.69
- CD46 expression diff [2, 15]: −0.08
- CD46 expression Percentage change [2, 16]: −1.2%
- CD46 expression Post [2, 17]: 6.10
- CD46 expression diff [2, 18]: −0.01
- CD46 expression Percentage change [2, 19]: −0.2%
- CD46 expression Post [2, 20]: 5.73
- CD46 expression diff ([2]; Prostate Cancer, Post minus Pre, unpaired biopsies, log2-transformed counts): −0.03
- CD46 expression Percentage change ([2]; Prostate Cancer, post- vs pre-treatment unpaired biopsies): −0.5%
- CD46 expression Post ([2]; Prostate Cancer, unpaired, RNA-seq log2-transformed normalized counts): 5.92

Compound: O=C(c1cc(Cc2n[nH]c(=O)c3ccccc23)ccc1F)N1CCN(C(=O)C2CC2)CC1 [olaparib]
- CD46 expression diff (post minus pre) ([1]; Ovarian Cancer): −0.14
- Percent Change in CD46 expression ([1]; Ovarian Cancer): −2.5%
- CD46 expression, Post-Treatment Biopsy ([1]; Ovarian Cancer): 5.51
- CD46 expression diff [2, 3]: 0.04
- CD46 expression Percentage change [2, 4]: 0.6%
- CD46 expression Post [2, 5]: 6.15
- CD46 expression diff [2, 18]: −0.02
- CD46 expression Percentage change [2, 19]: −0.3%
- CD46 expression Post [2, 20]: 5.70

Compound: CC(=O)O[C@H]1C(=O)[C@@]2(C)[C@H]([C@H](OC(=O)c3ccccc3)[C@]3(O)C[C@H](OC(=O)[C@H](O)[C@@H](NC(=O)c4ccccc4)c4ccccc4)C(C)=C1C3(C)C)[C@]1(OC(C)=O)CO[C@@H]1C[C@@H]2O [paclitaxel]
- CD46 expression diff (post minus pre) ([1]; Breast Cancer): −0.09
- Percent Change in CD46 expression ([1]; Breast Cancer): −1.4%
- CD46 expression, Post-Treatment Biopsy ([1]; Breast Cancer): 6.12
- CD46 expression diff (post minus pre) ([1]; Endometrial Cancer): 0.19
- Percent Change in CD46 expression ([1]; Endometrial Cancer): 3.2%
- CD46 expression, Post-Treatment Biopsy ([1]; Endometrial Cancer): 6.01
- CD46 expression diff (post minus pre) ([1]; Esophageal Cancer): 0.05
- Percent Change in CD46 expression ([1]; Esophageal Cancer): 0.8%
- CD46 expression, Post-Treatment Biopsy ([1]; Esophageal Cancer): 6.02
- CD46 expression diff (post minus pre) ([1]; Non-Small Cell Lung Cancer): −0.23
- Percent Change in CD46 expression ([1]; Non-Small Cell Lung Cancer): −3.7%
- CD46 expression, Post-Treatment Biopsy ([1]; Non-Small Cell Lung Cancer): 5.89
- CD46 expression diff (post minus pre) ([1]; Ovarian Cancer): −0.04
- Percent Change in CD46 expression ([1]; Ovarian Cancer): −0.8%
- CD46 expression, Post-Treatment Biopsy ([1]; Ovarian Cancer): 5.67
- CD46 expression diff ([2]; Breast Cancer, post minus pre, unpaired biopsies): −0.15
- CD46 expression Percentage change ([2]; Breast Cancer, post vs pre, unpaired biopsies): −2.4%
- CD46 expression Post ([2]; Breast Cancer, log2-transformed RNA-seq counts): 6.04
- CD46 expression diff [2, 6]: 0.03
- CD46 expression Percentage change [2, 7]: 0.6%
- CD46 expression Post [2, 8]: 5.85
- CD46 expression diff [2, 9]: −0.13
- CD46 expression Percentage change [2, 10]: −2.1%
- CD46 expression Post [2, 11]: 5.79
- CD46 expression diff ([2]; Gastric Cancer, Post minus Pre, unpaired biopsies, log2-transformed counts): 0.04
- CD46 expression Percentage change ([2]; Gastric Cancer, post- vs pre-treatment unpaired biopsies): 0.7%
- CD46 expression Post ([2]; Gastric Cancer, unpaired, RNA-seq log2-transformed normalized counts): 5.82
- CD46 expression diff [2, 12]: 0.13
- CD46 expression Percentage change [2, 13]: 2.4%
- CD46 expression Post [2, 14]: 5.68
- CD46 expression diff [2, 15]: −0.07
- CD46 expression Percentage change [2, 16]: −1.1%
- CD46 expression Post [2, 17]: 6.00
- CD46 expression diff [2, 18]: −0.01
- CD46 expression Percentage change [2, 19]: −0.1%
- CD46 expression Post [2, 20]: 5.73
- CD46 expression diff [2, 21]: −0.09
- CD46 expression Percentage change [2, 22]: −1.7%
- CD46 expression Post [2, 23]: 4.96

Compound: N#Cc1ccc(C(c2ccc(C#N)cc2)n2cncn2)cc1 [letrozole]
- CD46 expression diff (post minus pre) ([1]; Breast Cancer): −0.04
- Percent Change in CD46 expression ([1]; Breast Cancer): −0.6%
- CD46 expression, Post-Treatment Biopsy ([1]; Breast Cancer): 6.41
- CD46 expression diff [2, 3]: −0.04
- CD46 expression Percentage change [2, 4]: −0.6%
- CD46 expression Post [2, 5]: 6.39
- CD46 expression diff ([2]; Ovarian Cancer, post minus pre, unpaired biopsies): −0.17
- CD46 expression Percentage change ([2]; Ovarian Cancer, post vs pre, unpaired biopsies): −2.8%
- CD46 expression Post ([2]; Ovarian Cancer, log2-transformed RNA-seq counts): 5.74

Compound: Cc1nc(NC(=O)N2CCC[C@H]2C(N)=O)sc1-c1ccnc(C(C)(C)C(F)(F)F)c1 [alpelisib]
- CD46 expression diff (post minus pre) ([1]; Breast Cancer): −0.01
- Percent Change in CD46 expression ([1]; Breast Cancer): −0.1%
- CD46 expression, Post-Treatment Biopsy ([1]; Breast Cancer): 6.57
- CD46 expression diff [2, 3]: 0.13
- CD46 expression Percentage change [2, 4]: 2.0%
- CD46 expression Post [2, 5]: 6.67

Compound: CC(=O)c1c(C)c2cnc(Nc3ccc(N4CCNCC4)cn3)nc2n(C2CCCC2)c1=O [palbociclib]
- CD46 expression diff (post minus pre) ([1]; Breast Cancer): −0.17
- Percent Change in CD46 expression ([1]; Breast Cancer): −2.7%
- CD46 expression, Post-Treatment Biopsy ([1]; Breast Cancer): 6.34
- CD46 expression diff [2, 3]: 0.01
- CD46 expression Percentage change [2, 4]: 0.2%
- CD46 expression Post [2, 5]: 6.42

Compound: COc1cccc2c1C(=O)c1c(O)c3c(c(O)c1C2=O)C[C@@](O)(C(=O)CO)C[C@@H]3O[C@H]1C[C@H](N)[C@H](O)[C@H](C)O1 [doxorubicin]
- CD46 expression diff (post minus pre) ([1]; Breast Cancer): 0.12
- Percent Change in CD46 expression ([1]; Breast Cancer): 1.9%
- CD46 expression, Post-Treatment Biopsy ([1]; Breast Cancer): 6.27
- CD46 expression diff (post minus pre) ([1]; Sarcoma): 0.20
- Percent Change in CD46 expression ([1]; Sarcoma): 4.1%
- CD46 expression, Post-Treatment Biopsy ([1]; Sarcoma): 5.19
- CD46 expression diff ([2]; Bladder Cancer, post minus pre, unpaired biopsies): −0.27
- CD46 expression Percentage change ([2]; Bladder Cancer, post vs pre, unpaired biopsies): −4.3%
- CD46 expression Post ([2]; Bladder Cancer, log2-transformed RNA-seq counts): 5.88
- CD46 expression diff [2, 3]: −0.02
- CD46 expression Percentage change [2, 4]: −0.3%
- CD46 expression diff [2, 21]: 0.07
- CD46 expression Percentage change [2, 22]: 1.3%
- CD46 expression Post [2, 23]: 5.06
